# Active and inactive are the calls of the source. The rule behind the calls is not given here.
# How the values were obtained:
# [1] = Elimination half life in human at 1600 mg/kg, po administered as single dose and measured upto 144 hrs; format: ADME, organism-based; conditions: in vivo, read-out: beta t1/2 (converted)
# [2] = Elimination half life in human at 30 mg/kg, po administered as single dose and measured upto 144 hrs; format: ADME, organism-based; conditions: in vivo, read-out: beta t1/2 (converted)
# [3] = AUClast in human at 60 mg/kg, po administered as single dose and measured upto 144 hrs; format: ADME, organism-based; conditions: in vivo
# [4] = target: Acetylcholinesterase (Electrophorus electricus, UniProt O42275); experiment: Inhibition of Electric eel AChE
# Acetylcholinesterase, sequence (O42275 whole entry): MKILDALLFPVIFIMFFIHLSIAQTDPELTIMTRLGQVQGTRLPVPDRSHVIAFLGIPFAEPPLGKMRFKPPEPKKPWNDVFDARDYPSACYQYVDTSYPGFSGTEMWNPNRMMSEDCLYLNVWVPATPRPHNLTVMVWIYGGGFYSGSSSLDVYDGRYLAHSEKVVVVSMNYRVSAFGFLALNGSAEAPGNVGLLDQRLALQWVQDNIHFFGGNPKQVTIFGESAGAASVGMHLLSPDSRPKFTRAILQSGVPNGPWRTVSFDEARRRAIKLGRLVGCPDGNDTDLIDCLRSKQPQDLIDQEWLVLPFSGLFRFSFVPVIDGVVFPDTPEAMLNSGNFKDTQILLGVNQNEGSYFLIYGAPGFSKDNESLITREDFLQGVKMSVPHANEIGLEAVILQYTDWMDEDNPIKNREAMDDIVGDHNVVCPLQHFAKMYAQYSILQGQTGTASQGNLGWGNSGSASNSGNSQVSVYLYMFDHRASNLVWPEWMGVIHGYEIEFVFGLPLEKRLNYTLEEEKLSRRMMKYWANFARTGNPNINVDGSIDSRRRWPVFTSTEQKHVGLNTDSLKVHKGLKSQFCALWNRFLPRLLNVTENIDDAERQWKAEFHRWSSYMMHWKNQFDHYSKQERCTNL
# [5] = Apparent permeability in human Caco-2 cells at 25 umol/L incubated for 2 hrs by LC/MS/MS analysis; format: ADME, cell-based; conditions: dose 25 µmol/L
# [6] = target: Cytochrome P450 1A2 (Homo sapiens, UniProt P05177); experiment: Inhibition of CYP1A2 in human liver microsomes; format: ADME, Microsome
# [7] = Total body clearance in C57BL/6J mouse at 1 mg/kg, iv administered as single dose and measured after 24 hrs; format: ADME, organism-based; conditions: in vivo
# [8] = AUCinfinity in CD(SD) rat at 10 mg/kg, po administered as single dose and measured after 24 hrs; format: ADME, organism-based; conditions: in vivo
# [9] = target: Amine oxidase [flavin-containing] B (Homo sapiens, UniProt P27338); experiment: Inhibition of human MAO-B
# Amine oxidase [flavin-containing] B, sequence (P27338 whole entry): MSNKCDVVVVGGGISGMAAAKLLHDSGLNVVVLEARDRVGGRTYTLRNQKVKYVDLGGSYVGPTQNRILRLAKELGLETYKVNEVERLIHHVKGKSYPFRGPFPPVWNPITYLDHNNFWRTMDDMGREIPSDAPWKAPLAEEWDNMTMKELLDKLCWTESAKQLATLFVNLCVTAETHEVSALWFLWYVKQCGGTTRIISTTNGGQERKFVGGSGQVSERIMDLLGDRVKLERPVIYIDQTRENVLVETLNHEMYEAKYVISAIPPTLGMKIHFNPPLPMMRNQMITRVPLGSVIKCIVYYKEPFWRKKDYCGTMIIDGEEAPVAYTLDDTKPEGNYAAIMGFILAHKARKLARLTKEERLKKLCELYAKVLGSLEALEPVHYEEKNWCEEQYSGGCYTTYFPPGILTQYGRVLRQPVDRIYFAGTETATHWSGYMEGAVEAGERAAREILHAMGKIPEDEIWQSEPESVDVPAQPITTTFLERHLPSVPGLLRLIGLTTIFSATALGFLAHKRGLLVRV
# [10] = Selectivity ratio of agonist activity at human RXRalpha to inhibition of RORgamma (unknown origin)
# [11] = target: Voltage-gated L-type calcium channel (Rattus norvegicus, UniProt P22002+Q02485+P27732); experiment: Inhibition of rat L-type Ca2+ channel; format: protein assay
# [12] = Total body clearance in Beagle dog at 1 mg/kg, iv administered as single dose and measured after 24 hrs; format: ADME, organism-based, Canis lupus familiaris; conditions: in vivo
# [13] = AUClast in human at 1600 mg/kg, po administered as single dose and measured upto 144 hrs; format: ADME, organism-based; conditions: in vivo
# [14] = Selectivity ratio of agonist activity at mouse GR to inhibition of RORgamma (unknown origin)
# [15] = target: Histamine H3 receptor (Homo sapiens, UniProt Q9Y5N1); experiment: Inhibition of human histamine H3 receptor
# Histamine H3 receptor, sequence (Q9Y5N1 whole entry): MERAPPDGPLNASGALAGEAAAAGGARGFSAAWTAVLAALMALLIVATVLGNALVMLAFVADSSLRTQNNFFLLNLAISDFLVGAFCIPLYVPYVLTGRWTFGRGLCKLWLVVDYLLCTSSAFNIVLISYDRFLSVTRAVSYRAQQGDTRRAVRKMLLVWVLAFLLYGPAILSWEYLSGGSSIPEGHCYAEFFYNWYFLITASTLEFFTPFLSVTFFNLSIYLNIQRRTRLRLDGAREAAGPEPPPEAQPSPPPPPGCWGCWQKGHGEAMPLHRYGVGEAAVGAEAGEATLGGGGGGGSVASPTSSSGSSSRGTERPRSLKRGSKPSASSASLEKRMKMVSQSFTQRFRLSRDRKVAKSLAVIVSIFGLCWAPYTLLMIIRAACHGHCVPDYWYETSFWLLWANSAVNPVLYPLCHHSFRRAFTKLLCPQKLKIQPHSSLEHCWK
# [16] = target: Cytochrome P450 2C9 (Homo sapiens, UniProt P11712); experiment: Inhibition of CYP2C9 in human liver microsomes; format: ADME, Microsome
# Cytochrome P450 2C9, sequence (P11712 whole entry): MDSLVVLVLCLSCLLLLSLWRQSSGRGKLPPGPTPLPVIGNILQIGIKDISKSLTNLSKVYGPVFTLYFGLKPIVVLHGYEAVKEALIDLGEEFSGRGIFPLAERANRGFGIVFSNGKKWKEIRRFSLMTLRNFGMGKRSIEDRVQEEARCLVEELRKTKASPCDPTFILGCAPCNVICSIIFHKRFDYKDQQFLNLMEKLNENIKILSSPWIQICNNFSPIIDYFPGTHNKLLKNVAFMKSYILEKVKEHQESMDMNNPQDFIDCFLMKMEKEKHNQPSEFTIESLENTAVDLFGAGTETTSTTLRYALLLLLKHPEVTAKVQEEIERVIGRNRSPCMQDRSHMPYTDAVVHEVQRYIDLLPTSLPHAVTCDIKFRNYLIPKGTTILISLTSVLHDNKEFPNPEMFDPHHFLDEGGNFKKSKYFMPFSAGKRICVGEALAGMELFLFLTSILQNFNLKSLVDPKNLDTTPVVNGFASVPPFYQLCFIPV
# [17] = target: D(1A) dopamine receptor (Homo sapiens, UniProt P21728); experiment: Inhibition of human dopamine D1 receptor
# D(1A) dopamine receptor, sequence (P21728 whole entry): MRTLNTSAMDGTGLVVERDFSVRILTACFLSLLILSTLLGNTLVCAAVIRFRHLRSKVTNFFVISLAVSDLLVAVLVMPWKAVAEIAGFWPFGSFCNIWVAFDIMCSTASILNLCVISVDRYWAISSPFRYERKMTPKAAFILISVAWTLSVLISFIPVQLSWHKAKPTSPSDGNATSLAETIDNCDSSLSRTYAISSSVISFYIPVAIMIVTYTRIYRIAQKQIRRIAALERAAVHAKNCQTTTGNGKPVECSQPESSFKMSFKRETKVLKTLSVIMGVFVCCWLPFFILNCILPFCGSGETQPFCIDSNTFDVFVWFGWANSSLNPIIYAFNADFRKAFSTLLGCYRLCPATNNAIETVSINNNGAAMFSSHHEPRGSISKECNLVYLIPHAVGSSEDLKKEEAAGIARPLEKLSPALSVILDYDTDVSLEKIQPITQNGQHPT
# [18] = Cmax in human at 1600 […], po administered as single dose and measured upto 144 hrs; format: ADME, organism-based; conditions: in vivo
# [19] = MRT in CD(SD) rat at 10 mg/kg, po administered as single dose and measured after 24 hrs; format: ADME, organism-based; conditions: in vivo
# [20] = AUCinfinity in Beagle dog at 3 mg/kg, po administered as single dose and measured after 24 hrs; format: ADME, organism-based, Canis lupus familiaris; conditions: in vivo
# [21] = Tmax in human at 60 […], po administered as single dose and measured upto 144 hrs; format: ADME, organism-based; conditions: in vivo
# [22] = Total body clearance in cynomolgus monkey at 1 mg/kg, iv administered as single dose and measured after 24 hrs; format: ADME, organism-based, Macaca fascicularis; conditions: in vivo
# [23] = Volume of distribution at steady state in cynomolgus monkey at 1 mg/kg, iv administered as single dose and measured after 24 hrs; format: ADME, organism-based, Macaca fascicularis; conditions: in vivo, read-out: Vdss
# [24] = target: Cytochrome P450 2B6 (Homo sapiens, UniProt P20813); experiment: Inhibition of CYP2B6 in human liver microsomes; format: ADME, Microsome
# Cytochrome P450 2B6, sequence (P20813 whole entry): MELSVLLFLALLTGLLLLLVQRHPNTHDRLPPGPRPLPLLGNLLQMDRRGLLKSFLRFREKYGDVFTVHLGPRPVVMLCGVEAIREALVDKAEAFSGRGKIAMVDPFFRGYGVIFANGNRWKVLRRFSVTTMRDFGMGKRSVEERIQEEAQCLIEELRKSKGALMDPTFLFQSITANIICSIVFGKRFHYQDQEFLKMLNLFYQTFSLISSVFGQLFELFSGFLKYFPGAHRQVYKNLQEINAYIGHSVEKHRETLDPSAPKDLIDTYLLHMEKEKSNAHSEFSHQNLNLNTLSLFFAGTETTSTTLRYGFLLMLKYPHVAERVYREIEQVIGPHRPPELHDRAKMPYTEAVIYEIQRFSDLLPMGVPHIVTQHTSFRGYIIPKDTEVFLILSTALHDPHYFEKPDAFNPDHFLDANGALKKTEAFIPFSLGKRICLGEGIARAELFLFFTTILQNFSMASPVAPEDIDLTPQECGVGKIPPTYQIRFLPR
# [25] = target: Cytochrome P450 2D6 (Homo sapiens, UniProt P10635); experiment: Inhibition of CYP2D6 in human liver microsomes; format: ADME, Microsome
# Cytochrome P450 2D6, sequence (P10635 whole entry): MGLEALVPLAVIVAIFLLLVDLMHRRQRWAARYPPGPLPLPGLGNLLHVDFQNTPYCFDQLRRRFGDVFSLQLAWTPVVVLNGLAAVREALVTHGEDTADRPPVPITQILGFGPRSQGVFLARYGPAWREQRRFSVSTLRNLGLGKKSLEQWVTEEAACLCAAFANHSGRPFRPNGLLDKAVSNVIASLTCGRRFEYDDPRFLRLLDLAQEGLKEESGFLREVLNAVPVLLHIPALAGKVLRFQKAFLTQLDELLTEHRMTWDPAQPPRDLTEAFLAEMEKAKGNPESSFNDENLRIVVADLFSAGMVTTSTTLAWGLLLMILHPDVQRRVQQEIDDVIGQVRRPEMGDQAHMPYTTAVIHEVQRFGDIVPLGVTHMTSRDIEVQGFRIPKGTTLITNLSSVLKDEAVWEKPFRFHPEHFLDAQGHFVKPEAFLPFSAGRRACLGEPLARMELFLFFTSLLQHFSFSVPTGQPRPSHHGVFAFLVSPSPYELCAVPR
# [26] = target: Cytochrome P450 3A4 (Homo sapiens, UniProt P08684); experiment: Inhibition of CYP3A4 in human liver microsomes using testosterone as substrate; format: ADME, Microsome
# Cytochrome P450 3A4, sequence (P08684 whole entry): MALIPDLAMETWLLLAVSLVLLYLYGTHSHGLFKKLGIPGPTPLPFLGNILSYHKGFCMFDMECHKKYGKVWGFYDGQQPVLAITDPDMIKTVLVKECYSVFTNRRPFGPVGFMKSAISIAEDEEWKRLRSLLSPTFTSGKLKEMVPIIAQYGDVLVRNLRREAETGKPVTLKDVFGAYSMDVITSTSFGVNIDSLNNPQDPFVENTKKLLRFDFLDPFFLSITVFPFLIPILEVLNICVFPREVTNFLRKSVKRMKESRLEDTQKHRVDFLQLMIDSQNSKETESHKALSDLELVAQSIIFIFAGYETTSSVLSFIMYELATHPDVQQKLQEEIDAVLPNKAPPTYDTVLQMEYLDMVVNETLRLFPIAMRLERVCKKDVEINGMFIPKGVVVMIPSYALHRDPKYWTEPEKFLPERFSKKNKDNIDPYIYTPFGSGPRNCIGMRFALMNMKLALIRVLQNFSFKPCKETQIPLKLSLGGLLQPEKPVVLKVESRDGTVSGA
# [27] = Elimination half life in human at 200 mg/kg, po administered as single dose and measured upto 144 hrs; format: ADME, organism-based; conditions: in vivo, read-out: beta t1/2 (converted)
# [28] = Selectivity ratio of agonist activity at human PPARalpha to inhibition of RORgamma (unknown origin)
# [29] = AUClast in human at 400 mg/kg, po administered as single dose and measured upto 144 hrs; format: ADME, organism-based; conditions: in vivo
# [30] = Oral bioavailability in C57BL/6J mouse at 3 mg/kg administered as single dose and measured after 24 hrs; format: ADME, organism-based; conditions: in vivo
# [31] = Selectivity ratio of antagonist activity at human PPARgamma to inhibition of RORgamma (unknown origin)
# [32] = Volume of distribution at steady state in Beagle dog at 1 mg/kg, iv administered as single dose and measured after 24 hrs; format: ADME, organism-based, Canis lupus familiaris; conditions: in vivo, read-out: Vdss
# [33] = Oral bioavailability in Beagle dog at 3 mg/kg administered as single dose and measured after 24 hrs; format: ADME, organism-based, Canis lupus familiaris; conditions: in vivo
# [34] = target: Cytochrome P450 2A6 (Homo sapiens, UniProt P11509); experiment: Inhibition of CYP2A6 in human liver microsomes; format: ADME, Microsome
# [35] = target: Adrenergic receptor alpha-2 (Rattus norvegicus, UniProt P22086+P19328+P22909); experiment: Inhibition of rat adrenergic alpha2 receptor; format: protein assay
# [36] = Cmax in human at 400 […], po administered as single dose and measured upto 144 hrs; format: ADME, organism-based; conditions: in vivo
# [37] = Selectivity ratio of antagonist activity at human RORalpha to inhibition of RORgamma (unknown origin)
# [38] = Toxicity in Sprague-Dawley rat assessed as development-limiting toxicity at 30 to 300 mg/kg, po administered once daily and measured on day 1,14 and 27; format: organism-based; conditions: in vivo, 648 h, dose 30-300 mg/kg, time 27 day
# [39] = target: Histamine H2 receptor (Homo sapiens, UniProt P25021); experiment: Inhibition of human histamine H2 receptor
# Histamine H2 receptor, sequence (P25021 whole entry): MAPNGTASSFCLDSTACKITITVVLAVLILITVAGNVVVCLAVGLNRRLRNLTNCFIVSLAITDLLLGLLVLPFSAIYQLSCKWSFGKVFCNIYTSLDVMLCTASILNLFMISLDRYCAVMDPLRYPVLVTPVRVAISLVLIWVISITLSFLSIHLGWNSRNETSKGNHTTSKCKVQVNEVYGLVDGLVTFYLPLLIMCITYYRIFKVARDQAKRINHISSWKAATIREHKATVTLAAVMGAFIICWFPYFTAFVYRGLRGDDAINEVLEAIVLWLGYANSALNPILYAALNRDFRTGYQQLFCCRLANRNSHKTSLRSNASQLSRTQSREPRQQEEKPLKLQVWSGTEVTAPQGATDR
# [40] = Inhibition of human nicotinic receptor
# [41] = Total body clearance in CD(SD) rat at 1 mg/kg, iv administered as single dose and measured after 24 hrs; format: ADME, organism-based; conditions: in vivo
# [42] = target: Amine oxidase [flavin-containing] A (Homo sapiens, UniProt P21397); experiment: Inhibition of human MAO-A
# Amine oxidase [flavin-containing] A, sequence (P21397 whole entry): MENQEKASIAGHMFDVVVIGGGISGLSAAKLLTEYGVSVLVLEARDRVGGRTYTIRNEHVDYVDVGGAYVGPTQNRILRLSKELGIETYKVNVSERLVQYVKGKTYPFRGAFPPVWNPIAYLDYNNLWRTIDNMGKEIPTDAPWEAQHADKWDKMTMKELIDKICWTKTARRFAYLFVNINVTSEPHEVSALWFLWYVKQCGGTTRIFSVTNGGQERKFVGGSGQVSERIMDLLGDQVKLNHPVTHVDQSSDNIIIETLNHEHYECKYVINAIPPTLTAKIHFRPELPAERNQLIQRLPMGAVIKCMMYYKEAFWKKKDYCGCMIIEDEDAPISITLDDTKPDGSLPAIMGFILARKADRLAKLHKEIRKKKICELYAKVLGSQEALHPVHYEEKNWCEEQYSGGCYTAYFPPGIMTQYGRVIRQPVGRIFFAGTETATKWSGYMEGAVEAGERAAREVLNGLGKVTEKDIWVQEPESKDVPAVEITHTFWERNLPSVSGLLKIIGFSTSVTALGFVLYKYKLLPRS
# [43] = Volume of distribution at steady state in CD(SD) rat at 1 mg/kg, iv administered as single dose and measured after 24 hrs; format: ADME, organism-based; conditions: in vivo, read-out: Vdss
# [44] = Selectivity ratio of antagonist activity at human ERalpha to inhibition of RORgamma (unknown origin)
# [45] = test system: Mus musculus; experiment: Anti-inflammatory activity in complete Freund's adjuvant/MOG (35 to 55 residues)/pertussis toxin-induced experimental autoimmune encephalomyelitis C57BL/6 mouse model assessed as reduction in paralysis by measuring reduction in EAE clinical score at 3 to 10 mg/kg, po administered once daily for 17 days and measured on day 18; format: functional, organism-based; conditions: dose 3-10 mg/kg, time 18.0 day
# [46] = Genotoxicity in Salmonella typhimurium TA1535 at 188 to 5000 ug in presence of S9 fraction by bacterial reverse mutation test; format: toxicity, subcellular, Salmonella enterica subsp. enterica serovar Typhimurium; conditions: dose 188-5000 µg
# [47] = Selectivity ratio of antagonist activity at human VDR to inhibition of RORgamma (unknown origin)
# [48] = Elimination half life in human at 60 mg/kg, po administered as single dose and measured upto 144 hrs; format: ADME, organism-based; conditions: in vivo, read-out: beta t1/2 (converted)
# [49] = target: Prostaglandin G/H synthase 1 (Ovis aries, UniProt P05979); experiment: Inhibition of ovine cox-1
# [50] = Cmax in human at 1000 […], po administered as single dose and measured upto 144 hrs; format: ADME, organism-based; conditions: in vivo
smiles,measurement,setting,value
Cc1ccc(NC(=O)C[C@H](CCC(=O)O)c2noc([C@H]3C[C@@H](CC(C)(C)C)C3)c2C2CC2)c(Cl)c1,half-life,[1],10.7 h
same,half-life,[2],5.63 h
same,AUC(0-t) at 144 h,[3],11000 ng·h/mL
same,IC50,[4],> 10 µM
same,"Papp at 2 h, 25 µM",[5],22.3 ×10⁻⁶ cm/s
same,IC50,[6],> 10 µM
same,clearance,[7],0.5 mL/min/kg
same,AUC(0-inf),[8],191 µM·h
same,IC50,[9],> 10 µM
same,Selectivity ratio,[10],> 100
same,IC50,[11],> 10 µM
same,clearance,[12],0.5 mL/min/kg
same,AUC(0-t) at 144 h,[13],371000 ng·h/mL
same,Selectivity ratio,[14],> 100
same,IC50,[15],> 10 µM
same,IC50,[16],> 10 µM
same,IC50,[17],6.2 µM
same,Cmax,[18],60700 ng/mL
same,MRT,[19],5.6 h
same,AUC(0-inf),[20],118 µM·h
same,Tmax,[21],4 h
same,clearance,[22],3.17 mL/min/kg
same,Vd,[23],0.36 L/kg
same,IC50,[24],> 10 µM
same,IC50,[25],> 10 µM
same,IC50,[26],> 10 µM
same,half-life,[27],12.4 h
same,Selectivity ratio,[28],> 100
same,AUC(0-t) at 144 h,[29],94300 ng·h/mL
same,bioavailability,[30],98%
same,Selectivity ratio,[31],> 100
same,Vd,[32],0.19 L/kg
same,bioavailability,[33],64%
same,IC50,[34],> 10 µM
same,IC50,[35],> 10 µM
same,Cmax,[36],17500 ng/mL
same,Selectivity ratio,[37],> 100
same,Activity,[38],Non-Toxic
same,IC50,[39],> 10 µM
same,IC50,[40],> 10 µM
same,clearance,[41],1.83 mL/min/kg
same,IC50,[42],> 10 µM
same,Vd,[43],0.34 L/kg
same,Selectivity ratio,[44],> 100
same,Activity,[45],Active
same,Activity,[46],Non-Toxic
same,Selectivity ratio,[47],> 100
same,half-life,[48],5.49 h
same,IC50,[49],> 10 µM
same,Cmax,[50],38100 ng/mL

# — ChEMBL document CHEMBL5537159, “Discovery and SAR of JTE-151: A Novel RORγ Inhibitor for Clinical Development” (J Med Chem, 2024)
